In data set [1] the target is T1, ATP-dependent translocase ABCB1 (Homo sapiens, UniProt P08183). The experiment in a line: TP_TRANSPORTER: drug resistance in KB-VIN10 cells. It counts as functional, cell-based.
The target in data set [2] is T1, ATP-dependent translocase ABCB1. The experiment in a line: TP_TRANSPORTER: drug resistance in KB-TAX50 cells. In kind it is functional, cell-based.

T1 sequence (P08183 whole entry): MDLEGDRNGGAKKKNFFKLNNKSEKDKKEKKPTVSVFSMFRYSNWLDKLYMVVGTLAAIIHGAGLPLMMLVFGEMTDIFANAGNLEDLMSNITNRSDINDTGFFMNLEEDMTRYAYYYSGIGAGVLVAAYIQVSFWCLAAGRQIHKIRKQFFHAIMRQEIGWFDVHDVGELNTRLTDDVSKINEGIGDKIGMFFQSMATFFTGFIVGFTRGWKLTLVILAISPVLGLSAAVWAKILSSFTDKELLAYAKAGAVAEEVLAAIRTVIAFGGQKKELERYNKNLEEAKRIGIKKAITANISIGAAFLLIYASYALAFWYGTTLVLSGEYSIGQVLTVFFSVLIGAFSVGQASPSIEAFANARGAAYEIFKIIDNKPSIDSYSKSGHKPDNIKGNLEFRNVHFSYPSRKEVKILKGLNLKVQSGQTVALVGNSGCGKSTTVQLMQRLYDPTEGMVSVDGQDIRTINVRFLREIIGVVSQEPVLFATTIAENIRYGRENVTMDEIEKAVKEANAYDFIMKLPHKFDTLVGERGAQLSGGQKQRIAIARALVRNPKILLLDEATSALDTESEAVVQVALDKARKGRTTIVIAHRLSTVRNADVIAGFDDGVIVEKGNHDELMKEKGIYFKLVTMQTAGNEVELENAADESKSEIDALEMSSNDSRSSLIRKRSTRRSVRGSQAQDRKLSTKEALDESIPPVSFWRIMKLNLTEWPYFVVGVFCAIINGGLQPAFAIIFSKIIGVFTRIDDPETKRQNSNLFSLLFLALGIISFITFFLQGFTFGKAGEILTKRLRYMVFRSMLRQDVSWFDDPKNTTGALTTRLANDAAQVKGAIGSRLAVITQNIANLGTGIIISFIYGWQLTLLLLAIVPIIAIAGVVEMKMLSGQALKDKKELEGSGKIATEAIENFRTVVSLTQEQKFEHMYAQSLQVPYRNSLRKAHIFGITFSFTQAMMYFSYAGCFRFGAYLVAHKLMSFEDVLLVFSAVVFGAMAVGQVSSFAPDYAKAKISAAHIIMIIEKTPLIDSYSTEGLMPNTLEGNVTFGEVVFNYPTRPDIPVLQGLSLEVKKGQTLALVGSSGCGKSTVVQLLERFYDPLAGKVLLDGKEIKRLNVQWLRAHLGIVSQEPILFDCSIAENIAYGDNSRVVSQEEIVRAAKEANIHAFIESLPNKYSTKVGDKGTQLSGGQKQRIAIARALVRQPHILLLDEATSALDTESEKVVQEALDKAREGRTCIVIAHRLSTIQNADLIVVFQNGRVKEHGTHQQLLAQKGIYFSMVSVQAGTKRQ

For the compound `COc1cc2c(c(OC)c1OC)-c1ccc(OC)c(=O)cc1[C@@H](NC(C)=O)CC2` [COLCHICINE], the Activity entry in data set [1] and in data set [2] was “substrate [+]” throughout.
`CC[C@]1(O)C[C@H]2CN(CCc3c([nH]c4ccccc34)[C@@](C(=O)OC)(c3cc4c(cc3OC)N(C=O)[C@H]3[C@@](O)(C(=O)OC)[C@H](OC(C)=O)[C@]5(CC)C=CCN6CC[C@]43[C@@H]65)C2)C1` [VINCRISTINE]: the Activity entry in data set [1] and in data set [2] was “substrate [+]” throughout.
With `COc1ccc2c(C(=O)c3cc(OC)c(OC)c(OC)c3)c[nH]c2c1`, the Activity entry in data set [1] and in data set [2] was “is not a substrate [-]” each time.
`CC(=O)O[C@H]1C(=O)[C@@]2(C)[C@H]([C@H](OC(=O)c3ccccc3)[C@]3(O)C[C@H](OC(=O)[C@H](O)[C@@H](NC(=O)c4ccccc4)c4ccccc4)C(C)=C1C3(C)C)[C@]1(OC(C)=O)CO[C@@H]1C[C@@H]2O` [PACLITAXEL]: the Activity result in data set [1] and in data set [2] was “substrate [+]” throughout.
